According to PubChem BioAssay AID248 (DTP/NCI, 2004):
“And” between values parts separate entries of the source, which are not always exact repeats. Equal values may be shown once. Inconclusive results and toxic doses are left out. Cut-off read from the data, not from the text of the source: active = T/C of 150% or more; inactive = T/C below 125%.

System: L1210 leukemia ip in BDF1 mice, survival T/C
Assay: NCI In Vivo Anticancer Drug Screen. Data for tumor model L1210 Leukemia (intraperitoneal) in B6D2F1 (BDF1) mice
Conditions: endpoint: mean survival time, higher = longer survival
Summary of the method: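 Transplanted-tumor mice were given test agent; controls received vehicle only. Survival readings from the two groups were divided (treated over control).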

[1] = dose: 100.0 mg/kg/injection, schedule: Q04DX002 (ip), vehicle: Klucel (hydroxypropylcellulose) (HPC)
[2] = dose: 200.0 mg/kg/injection, schedule: Q04DX002 (ip), vehicle: Klucel (hydroxypropylcellulose) (HPC)
[3] = dose: 400.0 mg/kg/injection, schedule: Q04DX002 (ip), vehicle: Klucel (hydroxypropylcellulose) (HPC)
[4] = dose: 200.0 mg/kg/injection, schedule: Q01DX001 (ip), vehicle: saline
[5] = dose: 400.0 mg/kg/injection, schedule: Q01DX001 (ip), vehicle: saline
[6] = dose: 100.0 mg/kg/injection, schedule: Q01DX009 (ip), vehicle: Klucel (hydroxypropylcellulose) (HPC)
[7] = dose: 200.0 mg/kg/injection, schedule: Q01DX009 (ip), vehicle: Klucel (hydroxypropylcellulose) (HPC)
[8] = dose: 400.0 mg/kg/injection, schedule: Q01DX009 (ip), vehicle: Klucel (hydroxypropylcellulose) (HPC)
[9] = dose: 100.0 mg/kg/injection, schedule: Q04DX002 (ip), vehicle: saline
[10] = dose: 200.0 mg/kg/injection, schedule: Q04DX002 (ip), vehicle: saline
[11] = dose: 400.0 mg/kg/injection, schedule: Q04DX002 (ip), vehicle: saline
[12] = dose: 100.0 mg/kg/injection, schedule: Q04DX003 (ip), vehicle: Klucel (hydroxypropylcellulose) (HPC)
[13] = dose: 200.0 mg/kg/injection, schedule: Q04DX003 (ip), vehicle: Klucel (hydroxypropylcellulose) (HPC)
[14] = dose: 400.0 mg/kg/injection, schedule: Q04DX003 (ip), vehicle: Klucel (hydroxypropylcellulose) (HPC)

Measured: T/C

N#CCCN(Cc1ccccc1)C(=S)Nc1ccc(C(F)(F)F)cc1
inactive: [1] 100 % of control | [2] 100 % of control | [3] 100 % of control

CC[C@H](CC[C@@H](C)[C@H]1CC[C@H]2[C@@H]3CC=C4C[C@@H](OC(=O)CSC(CC(=O)O)C(=O)O)CC[C@]4(C)[C@H]3CC[C@]12C)C(C)C (some centres not stated)
inactive: dose: 100.0 mg/kg/injection, schedule: Q01DX001 (ip), vehicle: water 98 % of control | dose: 200.0 mg/kg/injection, schedule: Q01DX001 (ip), vehicle: water 86 % of control | dose: 400.0 mg/kg/injection, schedule: Q01DX001 (ip), vehicle: water 93 % of control

CC(C)c1cc2c(cc1O)C1(C)CCCC(C)(C(=O)O)C1CC2 (configuration not stated)
inactive: dose: 50.0 mg/kg/injection, schedule: Q04DX003 (ip), vehicle: acetone 87 % of control | dose: 100.0 mg/kg/injection, schedule: Q01DX001 (ip), vehicle: acetone 97 % of control | dose: 100.0 mg/kg/injection, schedule: Q04DX003 (ip), vehicle: acetone 90 % of control | dose: 200.0 mg/kg/injection, schedule: Q01DX001 (ip), vehicle: acetone 92 % of control | dose: 200.0 mg/kg/injection, schedule: Q04DX003 (ip), vehicle: acetone 89 % of control

Cc1nccnc1N/N=C\c1ccc(N(CCCl)CCCl)cc1
inactive: dose: 100.0 mg/kg/injection, schedule: Q01DX001 (ip), vehicle: carboxymethylcellulose (CMC) 104 % of control | dose: 200.0 mg/kg/injection, schedule: Q01DX001 (ip), vehicle: carboxymethylcellulose (CMC) 96 % of control | dose: 400.0 mg/kg/injection, schedule: Q01DX001 (ip), vehicle: carboxymethylcellulose (CMC) 93 % of control

Cc1cccc2ccccc12
inactive: [1] 107 % of control | [2] 107 % of control | [3] 107 % of control

O=C(Cc1c[nH]c2ccccc12)N/N=C\c1c[nH]c2ccccc12
inactive: [4] 97 % of control | [5] 92 % of control

COc1cccc(NC(=S)N2CCCCC2)c1
inactive: [6] 108 % of control | [7] 116 % of control | [8] 102 % of control

CC(=O)CC(C)(C)S(=O)(=O)O
inactive: dose: 100.0 mg/kg/injection, schedule: Q01DX001 (ip), vehicle: saline 100 % of control | [4] 100 % of control | [5] 100 % of control

N/C(=N/N=C/c1ccccc1O)N/N=C\c1ccccc1O
inactive: dose: 15.0 mg/kg/injection, schedule: Q01DX Z (ip), vehicle: carboxymethylcellulose (CMC) 93 % of control | dose: 30.0 mg/kg/injection, schedule: Q01DX Z (ip), vehicle: carboxymethylcellulose (CMC) 92 % of control | dose: 60.0 mg/kg/injection, schedule: Q01DX Z (ip), vehicle: carboxymethylcellulose (CMC) 97 % of control and 89 % of control | dose: 120.0 mg/kg/injection, schedule: Q01DX Z (ip), vehicle: carboxymethylcellulose (CMC) 92 % of control and 100 % of control | dose: 240.0 mg/kg/injection, schedule: Q01DX Z (ip), vehicle: carboxymethylcellulose (CMC) 100 % of control | dose: 240.0 mg/kg/injection, schedule: Q01DX Z (oral), vehicle: carboxymethylcellulose (CMC) 105 % of control | dose: 480.0 mg/kg/injection, schedule: Q01DX Z (ip), vehicle: carboxymethylcellulose (CMC) 94 % of control | dose: 480.0 mg/kg/injection, schedule: Q01DX Z (oral), vehicle: carboxymethylcellulose (CMC) 105 % of control | dose: 960.0 mg/kg/injection, schedule: Q01DX Z (oral), vehicle: carboxymethylcellulose (CMC) 105 % of control | dose: 1920.0 mg/kg/injection, schedule: Q01DX Z (oral), vehicle: carboxymethylcellulose (CMC) 113 % of control

CCCCCc1nc2c(c3c1CCCC3)CCCC2
inactive: dose: 75.0 mg/kg/injection, schedule: Q01DX001 (ip), vehicle: other 102 % of control | dose: 150.0 mg/kg/injection, schedule: Q01DX001 (ip), vehicle: other 96 % of control

O=C(NCCBr)c1ccc(N=Nc2ccccc2)cc1
inactive: dose: 20.0 mg/kg/injection, schedule: Q01DX009 (ip), vehicle: Klucel (hydroxypropylcellulose) (HPC) 95 % of control | dose: 20.0 mg/kg/injection, schedule: Q04DX003 (ip), vehicle: Klucel (hydroxypropylcellulose) (HPC) 103 % of control | dose: 40.0 mg/kg/injection, schedule: Q01DX009 (ip), vehicle: Klucel (hydroxypropylcellulose) (HPC) 95 % of control | dose: 40.0 mg/kg/injection, schedule: Q04DX003 (ip), vehicle: Klucel (hydroxypropylcellulose) (HPC) 103 % of control | dose: 80.0 mg/kg/injection, schedule: Q01DX009 (ip), vehicle: Klucel (hydroxypropylcellulose) (HPC) 91 % of control | dose: 80.0 mg/kg/injection, schedule: Q04DX003 (ip), vehicle: Klucel (hydroxypropylcellulose) (HPC) 105 % of control

CN(C)C(=S)SSSC(=S)N(C)C
inactive: dose: 25.0 mg/kg/injection, schedule: Q04DX002 (ip), vehicle: Klucel (hydroxypropylcellulose) (HPC) 101 % of control | dose: 50.0 mg/kg/injection, schedule: Q04DX002 (ip), vehicle: Klucel (hydroxypropylcellulose) (HPC) 94 % of control | [1] 93 % of control and 105 % of control

Oc1cccc2ccc(Cl)nc12
inactive: dose: 75.0 mg/kg/injection, schedule: Q01DX001 (ip), vehicle: carboxymethylcellulose (CMC) 97 % of control | dose: 150.0 mg/kg/injection, schedule: Q01DX001 (ip), vehicle: carboxymethylcellulose (CMC) 101 % of control | dose: 300.0 mg/kg/injection, schedule: Q01DX001 (ip), vehicle: carboxymethylcellulose (CMC) 97 % of control

CC(=O)OCC/[N+]([O-])=C\c1ncc([N+](=O)[O-])n1C
inactive: [9] 100 % of control | [10] 114 % of control | [11] 100 % of control

CCN(C)CCC(C=O)(c1cccc2ccccc12)C(C)C (configuration not stated)
inactive: [9] 100 % of control

O=C1NC23CC=CCC12CCC3 (configuration not stated)
inactive: [9] 100 % of control | [10] 93 % of control | [11] 109 % of control

c1ccc(Sc2cccc3ccccc23)cc1
inactive: dose: 100.0 mg/kg/injection, schedule: Q01DX009 (ip), vehicle: saline with Tween-80 109 % of control | dose: 200.0 mg/kg/injection, schedule: Q01DX009 (ip), vehicle: saline with Tween-80 103 % of control | dose: 400.0 mg/kg/injection, schedule: Q01DX009 (ip), vehicle: saline with Tween-80 103 % of control

C[CH2][Sn]([CH2]C)([O]S(C)(=O)=O)[O]S(C)(=O)=O
inactive: dose: 0.78 mg/kg/injection, schedule: Q01DX009 (ip), vehicle: saline 95 % of control | dose: 1.56 mg/kg/injection, schedule: Q01DX009 (ip), vehicle: saline 98 % of control | dose: 3.12 mg/kg/injection, schedule: Q01DX009 (ip), vehicle: saline 106 % of control | dose: 6.25 mg/kg/injection, schedule: Q01DX009 (ip), vehicle: saline 116 % of control | dose: 12.5 mg/kg/injection, schedule: Q01DX009 (ip), vehicle: saline 102 % of control

O=C1OC(c2ccccc2)=N/C1=C/c1cccs1
inactive: [6] 104 % of control | [12] 98 % of control | [7] 97 % of control | [13] 104 % of control | [8] 101 % of control | [14] 106 % of control

O=C(O)CC(c1ccccc1)C(CC(=O)O)c1ccccc1 (configuration not stated)
inactive: [12] 91 % of control | [13] 95 % of control | [14] 96 % of control

NCCCC(=S)S
inactive: [9] 95 % of control | [10] 96 % of control and 103 % of control | [11] 96 % of control and 116 % of control

O=[N+]([O-])c1ccc(S(=O)(=O)Oc2ccccc2)cc1
inactive: dose: 50.0 mg/kg/injection, schedule: Q01DX009 (ip), vehicle: saline sonified 93 % of control | dose: 100.0 mg/kg/injection, schedule: Q01DX009 (ip), vehicle: saline sonified 103 % of control | [12] 98 % of control | dose: 200.0 mg/kg/injection, schedule: Q01DX009 (ip), vehicle: saline sonified 92 % of control | [13] 91 % of control

COC(=O)C1CCC[N+](C)(C)C1 (configuration not stated)
inactive: dose: 25.0 mg/kg/injection, schedule: Q04DX003 (ip), vehicle: saline 95 % of control | dose: 50.0 mg/kg/injection, schedule: Q04DX003 (ip), vehicle: saline 97 % of control | dose: 100.0 mg/kg/injection, schedule: Q04DX003 (ip), vehicle: saline 94 % of control

O=[N+]([O-])c1ccc(N/N=C\c2ccc3ccccc3n2)cc1
inactive: dose: 100.0 mg/kg/injection, schedule: Q01DX009 (ip), vehicle: saline 97 % of control | dose: 200.0 mg/kg/injection, schedule: Q01DX009 (ip), vehicle: saline 104 % of control | dose: 400.0 mg/kg/injection, schedule: Q01DX009 (ip), vehicle: saline 91 % of control
